Laboratory results from ChEMBL document CHEMBL4396887, “Five-Membered N-Heterocyclic Scaffolds as Novel Amino Bioisosteres at γ-Aminobutyric Acid (GABA) Type A Receptors and GABA Transporters” (J Med Chem, 2019).
The source made the active and inactive calls. The rule behind the calls is not given here.

What follows are compounds tested against T1, Gamma-aminobutyric acid receptor subunit rho-1 (Homo sapiens, UniProt P24046) (assay: Agonist activity at recombinant human GABA-A rho-1 receptor transiently expressed in human tsA201 cells incubated for 30 mins and measured up to 90 secs by FMP dye based FLIPR membrane potential blue assay). Details: not given.
Type: cell-based

T1 sequence (P24046 whole entry): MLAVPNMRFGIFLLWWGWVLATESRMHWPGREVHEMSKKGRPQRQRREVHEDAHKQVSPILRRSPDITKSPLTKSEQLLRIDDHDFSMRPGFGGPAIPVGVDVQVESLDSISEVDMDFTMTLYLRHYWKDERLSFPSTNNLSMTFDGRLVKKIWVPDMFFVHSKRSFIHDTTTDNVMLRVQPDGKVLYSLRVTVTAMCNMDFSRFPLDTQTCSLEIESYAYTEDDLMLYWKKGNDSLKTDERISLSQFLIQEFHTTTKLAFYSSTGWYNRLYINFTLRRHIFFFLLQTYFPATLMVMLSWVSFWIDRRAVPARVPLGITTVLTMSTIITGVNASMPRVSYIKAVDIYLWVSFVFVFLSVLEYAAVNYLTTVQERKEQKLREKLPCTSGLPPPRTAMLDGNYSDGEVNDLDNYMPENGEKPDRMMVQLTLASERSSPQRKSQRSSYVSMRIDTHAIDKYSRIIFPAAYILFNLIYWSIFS

Which results are given for C[C@H]1SC(N)=N[C@@H]1CC(=O)O (relative stereo)?
EC50: Not Active; pEC50: inactive

Which results are given for O=C(O)C[C@@H]1CCNC1?
EC50: Not Active; pEC50: inactive

Same assay, conditions: read-out: EC50

How did the EC50 turn out when CC(C(=O)O)C1CSC(N)=N1 (stereo in doubt; l-10a) was run?
The EC50 was 7.4 µM.

With NC1=NC(CC(=O)O)CN1 (centres undefined) as the compound, how does the EC50 read?
Its EC50 is 3.8 µM.

How did the EC50 turn out when O=C(O)C[C@H]1CCNC1 was run?
Its EC50 is 8.4 µM.

These compounds were tested against GABA-A receptor; alpha-1/beta-2/gamma-2 (Homo sapiens) (UniProt P14867+P47870+P18507) (assay: Agonist activity at recombinant human GABA-A alpha1beta2gamma2S receptor transiently expressed in human tsA201 cells assessed as GABA-induced maximum response incubated for 30 mins and measured up to 90 secs by FMP dye based FLIPR membrane potential blue assay relative to GABA). Details: not given.
Type: cell-based

How did the Rmax turn out when NC1=NC(CC(=O)O)CN1 (centres undefined) was run?
Its Rmax is 81%.

Which Rmax does the source give for C[C@H]1SC(N)=N[C@@H]1CC(=O)O (relative stereo) here?
The Rmax was “inactive”.

O=C(O)C[C@@H]1CCNC1 was tested. Which Rmax did it give?
The Rmax was “inactive”.

With O=C(O)C[C@H]1CCNC1 as the compound, how does the Rmax read?
The Rmax was 93%.

Species on record: Homo sapiens
Assay: Agonist activity at recombinant human GABA-A alpha3beta2gamma2S receptor transiently expressed in human tsA201 cells assessed as GABA-induced maximum response incubated for 30 mins and measured up to 90 secs by FMP dye based FLIPR membrane potential blue assay relative to GABA
Type: cell-based
Details: not given

How did the Rmax turn out when NC1=NC(CC(=O)O)CN1 (centres undefined) was run?
Its Rmax is 105%.

Which Rmax does the source give for C[C@H]1SC(N)=N[C@@H]1CC(=O)O (relative stereo) here?
The Rmax was “inactive”.

Which Rmax does the source give for O=C(O)C[C@@H]1CCNC1 here?
The Rmax was “inactive”.

How did the Rmax turn out when O=C(O)C[C@H]1CCNC1 was run?
Its Rmax is 102%.

Each compound was assayed against T2, Gamma-aminobutyric acid receptor subunit alpha-5/beta-2/gamma-2 (Homo sapiens, UniProt P18507+P31644+P47870) (assay: Agonist activity at recombinant human GABA-A alpha5beta2gamma2S receptor transiently expressed in human tsA201 cells incubated for 30 mins and measured up to 90 secs by FMP dye based FLIPR membrane potential blue assay). Details: not given.
T2 sequence (P47870 whole entry): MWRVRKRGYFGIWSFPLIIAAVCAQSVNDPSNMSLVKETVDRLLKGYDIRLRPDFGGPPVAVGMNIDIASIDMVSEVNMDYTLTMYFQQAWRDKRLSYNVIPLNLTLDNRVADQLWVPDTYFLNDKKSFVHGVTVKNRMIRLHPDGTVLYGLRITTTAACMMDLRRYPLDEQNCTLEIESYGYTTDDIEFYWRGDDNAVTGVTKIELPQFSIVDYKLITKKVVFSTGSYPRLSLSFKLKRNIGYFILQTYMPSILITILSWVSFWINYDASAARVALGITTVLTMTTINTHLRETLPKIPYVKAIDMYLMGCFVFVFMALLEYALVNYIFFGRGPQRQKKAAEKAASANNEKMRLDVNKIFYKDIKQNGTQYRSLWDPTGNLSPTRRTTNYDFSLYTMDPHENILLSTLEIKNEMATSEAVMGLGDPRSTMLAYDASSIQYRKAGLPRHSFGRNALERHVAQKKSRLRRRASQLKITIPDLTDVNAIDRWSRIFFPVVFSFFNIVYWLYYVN
T2 sequence (P18507 whole entry): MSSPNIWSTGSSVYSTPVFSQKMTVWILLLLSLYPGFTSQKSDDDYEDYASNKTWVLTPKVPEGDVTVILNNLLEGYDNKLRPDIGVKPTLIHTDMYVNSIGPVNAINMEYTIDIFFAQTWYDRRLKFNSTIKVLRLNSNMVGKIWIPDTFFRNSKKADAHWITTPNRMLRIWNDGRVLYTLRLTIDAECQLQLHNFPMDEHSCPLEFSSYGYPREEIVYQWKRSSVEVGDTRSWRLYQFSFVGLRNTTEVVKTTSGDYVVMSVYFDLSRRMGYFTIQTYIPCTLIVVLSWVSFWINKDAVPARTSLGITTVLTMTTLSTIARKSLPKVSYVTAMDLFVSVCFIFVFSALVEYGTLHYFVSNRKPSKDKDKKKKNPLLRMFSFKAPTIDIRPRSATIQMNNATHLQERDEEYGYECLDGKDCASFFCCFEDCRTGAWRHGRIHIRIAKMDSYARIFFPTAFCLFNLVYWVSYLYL
T2 sequence (P31644 whole entry): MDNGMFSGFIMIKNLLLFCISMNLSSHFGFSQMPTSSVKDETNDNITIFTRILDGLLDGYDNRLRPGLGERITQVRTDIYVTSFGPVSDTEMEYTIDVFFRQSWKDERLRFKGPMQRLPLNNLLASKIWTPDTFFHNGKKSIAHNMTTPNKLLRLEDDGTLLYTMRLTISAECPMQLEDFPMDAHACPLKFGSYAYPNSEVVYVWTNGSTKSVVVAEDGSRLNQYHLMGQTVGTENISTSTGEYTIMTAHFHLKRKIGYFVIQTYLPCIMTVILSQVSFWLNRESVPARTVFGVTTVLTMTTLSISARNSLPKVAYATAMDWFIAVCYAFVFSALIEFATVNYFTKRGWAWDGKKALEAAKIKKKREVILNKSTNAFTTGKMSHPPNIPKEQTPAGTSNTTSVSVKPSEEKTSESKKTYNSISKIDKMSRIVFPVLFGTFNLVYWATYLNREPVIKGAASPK
Type: cell-based

CC(C(=O)O)C1CSC(N)=N1 (stereo in doubt; l-10a) was tested. Which EC50 did it give?
Its EC50 is 2.7 µM.

Which EC50 does the source give for NC1=NC(CC(=O)O)CN1 (centres undefined) here?
Its EC50 is 1.6 µM.

Which EC50 does the source give for C[C@H]1SC(N)=N[C@@H]1CC(=O)O (relative stereo) here?
Its EC50 is 17 µM.

How did the EC50 turn out when O=C(O)C[C@@H]1CCNC1 was run?
The EC50 was 24 µM.

With O=C(O)C[C@H]1CCNC1 as the compound, how does the EC50 read?
Its EC50 is 0.94 µM.

Each compound was assayed against T1, Gamma-aminobutyric acid receptor subunit rho-1 (assay: Agonist activity at recombinant human GABA-A rho-1 receptor transiently expressed in human tsA201 cells assessed as GABA-induced maximum response incubated for 30 mins and measured up to 90 secs by FMP dye based FLIPR membrane potential blue assay relative to GABA). Details: not given.
Type: cell-based

How did the Rmax turn out when NC1=NC(CC(=O)O)CN1 (centres undefined) was run?
Its Rmax is 64%.

How did the Rmax turn out when C[C@H]1SC(N)=N[C@@H]1CC(=O)O (relative stereo) was run?
The Rmax was “inactive”.

For O=C(O)C[C@@H]1CCNC1, which Rmax is on record?
The Rmax was “inactive”.

With O=C(O)C[C@H]1CCNC1 as the compound, how does the Rmax read?
The Rmax was 101%.

Each compound was assayed against T3, Sodium- and chloride-dependent GABA transporter 1 (Homo sapiens, UniProt P30531). Details: read-out: IC50.
Type: cell-based
Target sequence in this assay (P30531 whole entry): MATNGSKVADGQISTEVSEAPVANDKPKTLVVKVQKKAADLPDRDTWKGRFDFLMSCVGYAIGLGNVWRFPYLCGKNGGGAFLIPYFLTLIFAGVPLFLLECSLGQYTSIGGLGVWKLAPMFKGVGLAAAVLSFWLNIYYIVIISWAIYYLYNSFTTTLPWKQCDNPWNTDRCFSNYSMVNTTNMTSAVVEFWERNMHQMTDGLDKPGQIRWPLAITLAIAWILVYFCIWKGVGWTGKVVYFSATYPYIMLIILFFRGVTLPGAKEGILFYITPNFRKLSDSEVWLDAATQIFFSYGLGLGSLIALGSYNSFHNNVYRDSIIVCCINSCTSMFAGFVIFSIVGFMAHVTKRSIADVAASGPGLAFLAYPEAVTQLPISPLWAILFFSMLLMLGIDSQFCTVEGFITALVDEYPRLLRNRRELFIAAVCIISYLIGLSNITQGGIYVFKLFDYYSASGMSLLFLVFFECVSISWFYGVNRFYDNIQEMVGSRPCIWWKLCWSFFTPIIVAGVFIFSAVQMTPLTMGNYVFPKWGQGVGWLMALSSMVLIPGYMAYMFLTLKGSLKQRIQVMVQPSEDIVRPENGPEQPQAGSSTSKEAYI

With CC(C(=O)O)C1CSC(N)=N1 (stereo in doubt; l-10a) as the compound, how does the IC50 read?
Its IC50 is over 100 µM.

Which IC50 does the source give for NC1=NC(CC(=O)O)CN1 (centres undefined) here?
The IC50 was 96.9 µM.

How did the IC50 turn out when C[C@H]1SC(N)=N[C@@H]1CC(=O)O (relative stereo) was run?
The IC50 was over 100 µM.

O=C(O)C[C@@H]1CCNC1 was tested. Which IC50 did it give?
The IC50 was 3.9 µM.

Which IC50 does the source give for O=C(O)C[C@H]1CCNC1 here?
The IC50 was 3.6 µM.

Same assay, conditions: read-out: pIC50 (converted)

O=C(O)C[C@@H]1CCNC1 was tested. Which IC50 did it give?
Its IC50 is 3.16 µM.

With O=C(O)C[C@H]1CCNC1 as the compound, how does the IC50 read?
The IC50 was 2.51 µM.

Each compound was assayed against T4, Sodium- and chloride-dependent GABA transporter 3 (Homo sapiens, UniProt P48066) (assay: Inhibition of human GAT3 expressed in Flp-In CHO cells assessed as reduction in [3H]GABA uptake incubated for 3 mins by liquid scintillation counting method). Details: read-out: IC50.
T4 sequence (P48066 whole entry): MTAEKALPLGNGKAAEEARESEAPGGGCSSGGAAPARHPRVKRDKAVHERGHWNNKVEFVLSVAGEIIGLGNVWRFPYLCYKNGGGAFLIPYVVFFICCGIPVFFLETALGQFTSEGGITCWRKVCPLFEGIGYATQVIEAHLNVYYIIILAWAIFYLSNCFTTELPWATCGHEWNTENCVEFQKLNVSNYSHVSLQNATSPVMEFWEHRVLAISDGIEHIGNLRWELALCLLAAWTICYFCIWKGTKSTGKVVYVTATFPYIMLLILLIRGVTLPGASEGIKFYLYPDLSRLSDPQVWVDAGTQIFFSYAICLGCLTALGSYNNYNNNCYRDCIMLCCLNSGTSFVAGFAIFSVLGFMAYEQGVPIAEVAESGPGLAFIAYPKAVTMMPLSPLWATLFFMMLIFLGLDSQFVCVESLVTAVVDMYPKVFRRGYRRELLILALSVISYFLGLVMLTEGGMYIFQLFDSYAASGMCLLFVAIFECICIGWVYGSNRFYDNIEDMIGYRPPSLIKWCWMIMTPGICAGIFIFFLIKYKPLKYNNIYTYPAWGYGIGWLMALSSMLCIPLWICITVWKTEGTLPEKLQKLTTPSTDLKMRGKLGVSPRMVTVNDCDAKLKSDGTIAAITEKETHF
Type: cell-based

How did the IC50 turn out when CC(C(=O)O)C1CSC(N)=N1 (stereo in doubt; l-10a) was run?
Its IC50 is over 100 µM.

With NC1=NC(CC(=O)O)CN1 (centres undefined) as the compound, how does the IC50 read?
The IC50 was 43.7 µM.

For C[C@H]1SC(N)=N[C@@H]1CC(=O)O (relative stereo), which IC50 is on record?
Its IC50 is over 100 µM.

Which IC50 does the source give for O=C(O)C[C@@H]1CCNC1 here?
The IC50 was 2.7 µM.

For O=C(O)C[C@H]1CCNC1, which IC50 is on record?
The IC50 was 2.3 µM.

What follows are compounds tested against T3, Sodium- and chloride-dependent GABA transporter 1 (assay: Inhibition of human GAT1 expressed in Flp-In CHO cells assessed as reduction in [3H]GABA uptake at 100 uM incubated for 3 mins by liquid scintillation counting method relative to control). Details: not given.
Type: cell-based
Target sequence in this assay (P30531 whole entry, looked up): as the sequence (P30531 whole entry) above

Which inhibition does the source give for NC1=NC(CC(=O)O)CN1 (centres undefined) here?
The inhibition was over 30%.

For C[C@H]1SC(N)=N[C@@H]1CC(=O)O (relative stereo), which inhibition is on record?
The inhibition was over 30%.

How did the inhibition turn out when O=C(O)C[C@@H]1CCNC1 was run?
The inhibition was over 30%.

For O=C(O)C[C@H]1CCNC1, which inhibition is on record?
The inhibition was over 30%.

These compounds were tested against T5, Sodium- and chloride-dependent GABA transporter 3 (Homo sapiens) (UniProt P48066) (assay: Inhibition of human GAT3 expressed in Flp-In CHO cells assessed as reduction in [3H]GABA uptake at 100 uM incubated for 3 mins by liquid scintillation counting method relative to control). Details: not given.
T5 sequence (whole entry): T4 sequence (P48066 whole entry)
Type: cell-based

With NC1=NC(CC(=O)O)CN1 (centres undefined) as the compound, how does the inhibition read?
Its inhibition is over 30%.

Which inhibition does the source give for C[C@H]1SC(N)=N[C@@H]1CC(=O)O (relative stereo) here?
The inhibition was over 30%.

For O=C(O)C[C@@H]1CCNC1, which inhibition is on record?
Its inhibition is over 30%.

How did the inhibition turn out when O=C(O)C[C@H]1CCNC1 was run?
The inhibition was over 30%.
